Test results reported in patent US12396996B2, “Compounds, pharmaceutical compositions, and methods of their use in reversing cancer chemoresistance” (priority 2019, dated 2025).

Columns and labels:
MDA-MB-231 cells = assay: Cleaved caspase 3 apoptosis assay; assay type: cell-based, human; details: chaetocin 0, 100, 200 nM; compared with MDA-MB-468
Text: (§1) FIGS. 1A-1K are a series of figures showing sensitivity of tumor initiating cell (TICs)-rich, chemoresistant breast cancer and clear cell renal cell carcinoma cell lines to chaetocin compared to non-cancerous epithelial or isogenic cancerous epithelial, TIC-deplete, chemosensitive breast cancer and clear cell renal cell carcinoma cell lines. […] The data presented in FIGS. 1A and 1B indicate that at lower doses especially chaetocin specifically induces apoptosis of mesenchymal, TIC-rich, chemotherapy-resistant breast cancer cell lines compared to the epithelial, non-TIC-rich and chemotherapy-responsive cell-line.
(§2) To determine whether constitutive heterochromatin proteins are similarly required for the development of […] in cancer, the efficacy of a heterochromatin inhibitor, which selectively represses the activities of two proteins critical for constitutive heterochromatin formation, namely suppressor of variegation 3-9 homolog 1 (Suv39H1) and suppressor of variegation 3-9 homolog 2 (Suv39H2), was tested in human cells, using 2-D, spheroid and tumorsphere assays. To determine the sensitivity of well-established mesenchymal and epithelial cancer cells to a heterochromatin inhibitor, chaetocin, the degree of apoptotic cell death was measured in two cancer cell lines, MDA-MB-231 and MDA-MB-468. […]

MDA-MB-468 cells = assay: Cleaved caspase 3 apoptosis assay; assay type: cell-based, human; details: chaetocin 0, 400, 800 nM; compared with MDA-MB-231
Text: as §1, §2

[1] = system: TICs (cancer stem/progenitor cells); assay: Tumorsphere assay; assay type: cell-based; details: 0, 30, 80 nM; 14 days of culture
Text: FIGS. 1F-1I show the results of a 3-D tumor spheroid assay formed by the chemotherapy-resistant breast cancer cell line, HMLE-SNAIL. […] Tumor spheroids are a model of real in vivo tumors, as they form a 3-D cell mass in which the hypoxic and often nutrient depleted microenvironment at the center of the tumor is enriched with mesenchymal, chemotherapy-resistant TIC cells. […] By staining spheroids with Sytox, which stains dead cells green, and DAPI, which stains the nuclei of all cells (living or dead), total fraction of dead cells is calculated. Also, the location of dead cells within the sphere is visualized with Sytox (green) staining. The results of FIGS. 1F-1I indicate that chaetocin a selective and potent killer of inner cells of the spheroids, enriched with mesenchymal, chemotherapy-resistant TIC cells, compared to other compounds tested. FIGS. 1J-1K show the results of a tumorsphere assay performed with TICs grown on serum-free, non-adherent culture conditions. […] The results of FIGS. 1J-1K indicate that chaetocin is effective in eliminating TICs in a dose dependent-manner.
To further determine the effect of chaetocin on eliminating TICs, a tumorsphere assay was performed on cancer cells under increasing concentrations of chaetocin. A tumorsphere is a solid spherical formation developed from the proliferation of one cancer stem/progenitor cell. […]

HMLE-TWIST cells [2] = assay: CD44/CD24 FACS analysis after chaetocin pulse and washout; assay type: cell-based, human
Description: Cultured mesenchymal, TIC-rich HMLE-TWIST cells were treated with increasing concentrations of chaetocin for 2 days, washed and then incubated in chaetocin-free media for two days. CD44/CD24 FACS analyses were performed either immediately or two days after chaetocin removal.
CD44/CD24 FACS analyses either were performed either immediately or 6 days after chaetocin removal.
To determine whether a short pulse of the Suv39H1/H2 inhibitor, chaetocin, is sufficient to bring about an epigenetic change, cultured HMLE-TWIST cells (also referred to as ‘HMLE-TWIST TICs’ or ‘TICs’) were exposed to different doses of chaetocin for two days, followed by washout, and replacement with regular media. Cells were tracked for their phenotypic fate (e.g., CD44/CD24 marker expression) for another two or 6 days in chaetocin-free media. In this cell line, high CD44 and low CD24 expression indicate TIC cell populations. Cells that express CD24 are considered non-TICs. […] Next, to determine whether the epigenetic change persists for periods longer than two days, a separate experiment was performed in which HMLE-TWIST cells were treated with chaetocin for two days, followed by FACS analysis of CD24/CD44 expression either immediately after or 6 days after, as schematized in the top panel of FIG. 3M.

HMLE-TWIST cells [3] = assay: E-cadherin (E-cad) level after chaetocin pulse; assay type: cell-based, human; details: 80 nM or 200 nM for 15 hours, then 1, 2, 4 days chaetocin-free
Description: Levels of an epithelial marker, E-cadherin (E-cad) were assayed at 15H, 1 D, 2D, and 4D after chaetocin treatment and the fraction of E-cad positive cells was quantified.
To molecularly test whether chaetocin treatment converts mesenchymal cells into epithelial cells, HMLE-TWIST cells were treated with a pulse of chaetocin for 15 hours (15H), washed and then incubated in chaetocin-free media for 1 day (1D), 2 days (2D), and 4 days (4D). Levels of the ubiquitous epithelial marker E-cadherin (E-cad) was assayed using Western blots throughout the experiment.

HMLE-TWIST cells [4] = details: 20, 50, 100 nM for 5 or 15 hours, two days chaetocin-free, then doxorubicin
Description: Doxorubicin was added after two days and cell death was assayed with cleaved caspase-3 intensity.
To determine if EMT reversal with chaetocin can sensitize TIC-rich breast cancer cells, namely HMLE-TWIST cells, to conventional chemotherapeutic agents, cells were treated for 5 or 15 hours with different concentrations of chaetocin (20 nM, 50 nM, and 100 nM), as is schematized in FIG. 4A. Cells were then washed and incubated in chaetocin-free media for two days. Doxorubicin was then added, and cell death was assayed using FACS analysis of caspase-3 cleavage two days after doxorubicin addition.

HMLE-TWIST cells [5] = details: 0.3 μM, 15 hours, versus untreated
Description: To determine whether the transcriptional changes associated with chaetocin treatment support this apparent change in cell state (reversal of mesenchymal fate), RNA-seq experiments were performed on cells treated for 15 hours with 0.3 μM of chaetocin after which total RNA was extracted and subjected to deep sequencing.
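For Log2foldChange ALDH1A1 in this document: transcript levels measured by RNA-seq of total RNA extracted from treated cells, given as log2 change relative to untreated cells.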
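For Log2foldChange BIRC5 (survivin-1) in this document: transcript levels measured by RNA-seq of total RNA extracted from treated cells, given as log2 change relative to untreated cells.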
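For Log2foldChange CD24 in this document: transcript levels measured by RNA-seq of total RNA extracted from treated cells, given as log2 change relative to untreated cells.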
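For Log2foldChange CDH1 (E-cadherin) in this document: transcript levels measured by RNA-seq of total RNA extracted from treated cells, given as log2 change relative to untreated cells.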

CN1C(=O)[C@@]23C[C@]4([C@]56C[C@@]78SS[C@](CO)(C(=O)N7[C@H]5Nc5ccccc56)N(C)C8=O)c5ccccc5N[C@@H]4N2C(=O)[C@@]1(CO)SS3 [chaetocin]
apoptosis (cleaved caspase 3) sensitivity (MDA-MB-231 cells): more sensitive to chaetocin compared to the non-TIC, MDA-MB-468 cells | apoptosis (cleaved caspase 3) sensitivity (MDA-MB-468 cells): increased sensitivity to chaetocin as compared to MDA-MB-231 cells | number of tumorspheres per well [1]: can eliminate TICs at low doses | CD44/CD24 phenotype (TIC to non-TIC) (HMLE-TWIST cells [2]; 0.1, 0.15, 0.2, 0.5 μM for two days, immediately after treatment): converts TICs into non-TICs in a dose dependent manner | persistence of TIC to non-TIC conversion (HMLE-TWIST cells [2]; two or 6 days in chaetocin-free media): persist for up to six days after chaetocin removal | E-cadherin level (mesenchymal to epithelial conversion) (HMLE-TWIST cells [3]): stable epigenetic change in cell phenotype converting mesenchymal cancer cells into epithelial ones | reversal of resistance to doxorubicin (caspase-3 cleavage) (HMLE-TWIST cells [4]): reverses chemotherapy resistance of mesenchymal, TIC-rich HMLE-TWIST cells to doxorubicin | Log2foldChange ALDH1A1 (HMLE-TWIST cells [5]): −2.01 | Log2foldChange BIRC5 (survivin-1) (HMLE-TWIST cells [5]): 0.491 | Log2foldChange CD24 (HMLE-TWIST cells [5]): −0.912 | Log2foldChange CDH1 (E-cadherin) (HMLE-TWIST cells [5]): 4.25 | Log2foldChange CLDN2 (HMLE-TWIST cells [5]): 6.00 | Log2foldChange CLDN4 (HMLE-TWIST cells [5]): 3.68 | Log2foldChange CLDN6 (HMLE-TWIST cells [5]): 7.30 | Log2foldChange CLDN9 (HMLE-TWIST cells [5]): 4.59 | Log2foldChange CLDN16 (HMLE-TWIST cells [5]): 2.77 | Log2foldChange CLDN23 (HMLE-TWIST cells [5]): 1.18 | Log2foldChange COL2A1 (HMLE-TWIST cells [5]): 4.34 | Log2foldChange CRB1 (HMLE-TWIST cells [5]): 9.40 | Log2foldChange CST6 (HMLE-TWIST cells [5]): 2.12 | Log2foldChange Errb2 (HMLE-TWIST cells [5]): −0.829 | Log2foldChange GJA1 (HMLE-TWIST cells [5]): −0.627 | Log2foldChange GLI-2 (HMLE-TWIST cells [5]): −0.941 | Log2foldChange KRT7 (HMLE-TWIST cells [5]): 1.59 | Log2foldChange KRT8 (HMLE-TWIST cells [5]): 1.30 | Log2foldChange KRT18 (HMLE-TWIST cells [5]): 1.95 | Log2foldChange KRT19 (HMLE-TWIST cells [5]): 4.46 | Log2foldChange KRT34 (HMLE-TWIST cells [5]): 5.49 | Log2foldChange KRT80 (HMLE-TWIST cells [5]): 1.24 | Log2foldChange KRT81 (HMLE-TWIST cells [5]): 1.47 | Log2foldChange KRT86 (HMLE-TWIST cells [5]): 3.10 | Log2foldChange LAMB1 (HMLE-TWIST cells [5]): −1.05 | Log2foldChange MMP14 (HMLE-TWIST cells [5]): −1.14 | Log2foldChange NRF-2 (HMLE-TWIST cells [5]): −0.862 | Log2foldChange Nanog (HMLE-TWIST cells [5]): −2.21 | Log2foldChange O ct4 (HMLE-TWIST cells [5]): −1.76 | Log2foldChange PTEN (HMLE-TWIST cells [5]): −0.780 | Log2foldChange SNAI2 (HMLE-TWIST cells [5]): −0.623 | Log2foldChange TWIST1 (HMLE-TWIST cells [5]): −0.549 | Log2foldChange WISP1 (HMLE-TWIST cells [5]): −1.06 | Log2foldChange ZEB1 (HMLE-TWIST cells [5]): −0.666
